24 compounds from patent publication US10793575B2, “Oxoisoquinoline derivatives” (CARNA BIOSCIENCES, INC., priority 2016, dated 2020) can be followed below.

The assay concerns OCI-Ly10 cells. The experiment in a line: Proliferation-Inhibitory Test Against Diffuse Large-Cell B-Cell Lymphoma OCI-Ly10 Strain. Format: cell-based. To be noted: Homo sapiens, 96 hours, alamarBlue. On the procedure:
OCI-Ly10 cells were cultured in IMDM medium (Iscove's Modified Dulbecco's Medium, Manufactured by Thermo Fisher Scientific Inc., hereinafter “medium”) containing 20% Fetal bovine serum and 1% penicillin-streptomycin (Nacalai Tesque, Inc.) in a 5% CO2 incubator. OCI-Ly10 cells were seeded to 96-well plate (20000 cells/well), compounds diluted with medium were added with final concentrations of 0.9 nM to 30000 nM (Final DMSO concentration, 0.3%), incubated for 96 hours and alamorBlue reagent (Thermo Fisher Scientific Inc.) was added.
For orientation: The colour change of resazurin is a common sign of viable cells or microbes.
In turn, `Nc1nc(-c2cccc(-n3ccc4cc(C5CC5)cc(F)c4c3=O)c2CO)c2cc(C3=CCN(C(=O)N4CCOCC4)CC3)[nH]c2n1` [Example 70, 2-(3-{2-amino-6-[1-(morpholine-4-carbonyl)-1,2,3,6-tetrahydropyridin-4-yl]-7H-pyrrolo[2,3-d]pyrimidin-4-yl}-2-(hydroxymethyl)phenyl)-6-cyclopropyl-8-fluoroisoquinolin-1(2H)-one] showed an IC50 of 4 nM.
Then `Cc1ccc(-c2cc3c(-c4cccc(-n5ccc6cc(C7CC7)cc(F)c6c5=O)c4CO)nc(N)nc3[nH]2)cc1` [Example 56, 2-{3-[2-amino-6-(p-tolyl)-7H-pyrrolo[2,3-d]pyrimidin-4-yl]-2-(hydroxymethyl)phenyl}-6-cyclopropyl-8-fluoroisoquinolin-1(2H)-one], with 412 nM.
Then `Nc1nc(-c2cccc(-n3ccc4cc(C5CC5)cc(F)c4c3=O)c2CO)c2cc(C3=CCSCC3)[nH]c2n1` [Example 82, 2-{3-[2-amino-6-(3,6-dihydro-2H-thiopyran-4-yl)-7H-pyrrolo[2,3-d]pyrimidin-4-yl]-2-(hydroxymethyl)phenyl}-6-cyclopropyl-8-fluoroisoquinolin-1(2H)-one], with 24 nM.
Then `COC1CCN(Cc2ccc(-c3cc4c(-c5cccc(-n6ccc7cc(C8CC8)cc(F)c7c6=O)c5CO)nc(N)nc4[nH]3)cc2)CC1` [Example 74, 2-[3-(2-amino-6-{4-[(4-methoxypiperidin-1-yl)methyl]phenyl}-7H-pyrrolo[2,3-d]pyrimidin-4-yl)-2-(hydroxymethyl)phenyl]-6-cyclopropyl-8-fluoroisoquinolin-1(2H)-one], with 13 nM.
As for `COCCNc1cncc(-c2cc3c(-c4cccc(-n5ccc6cc(C7CC7)cc(F)c6c5=O)c4CO)nc(N)nc3[nH]2)c1` [Example 60, 2-[3-(2-amino-6-{5-[(2-methoxyethyl)amino]pyridin-3-yl}-7H-pyrrolo[2,3-d]pyrimidin-4-yl)-2-(hydroxymethyl)phenyl}-6-cyclopropyl-8-fluoroisoquinolin-1(2H)-one], the IC50 turned out to be 64 nM.
`Nc1nc(-c2cccc(-n3ccc4cc(C5CC5)cc(F)c4c3=O)c2CO)c2cc(-c3cnn(-c4ccccc4)c3)[nH]c2n1` [Example 64, 2-{3-[2-amino-6-(1-phenyl-1H-pyrazol-4-yl)-7H-pyrrolo[2,3-d]pyrimidin-4-yl]-2-(hydroxymethyl)phenyl}-6-cyclopropyl-8-fluoroisoquinolin-1(2H)-one] yielded an IC50 of 642 nM.
Under `Nc1nc(-c2cccc(-n3ccc4cc(C5CC5)cc(F)c4c3=O)c2CO)c2cc(-c3ccc(N4CCOCC4)nc3)[nH]c2n1` [Example 48, 2-{3-[2-amino-6-(6-morpholinopyridin-3-yl)-7H-pyrrolo[2,3-d]pyrimidin-4-yl]-2-(hydroxymethyl)phenyl}-6-cyclopropyl-8-fluoroisoquinolin-1(2H)-one] stands 54 nM.
Under `Nc1nc(-c2cccc(-n3ccc4cc(C5CC5)cc(F)c4c3=O)c2CO)c2cc(-c3cncc(F)c3)[nH]c2n1` [Example 46, 2-{3-[2-amino-6-(5-fluoropyridin-3-yl)-7H-pyrrolo[2,3-d]pyrimidin-4-yl]-2-(hydroxymethyl)phenyl}-6-cyclopropyl-8-fluoroisoquinolin-1(2H)-one] stands 564 nM.
Then `CN(C)c1ccc(-c2cc3c(-c4cccc(-n5ccc6cc(C7CC7)cc(F)c6c5=O)c4CO)nc(N)nc3[nH]2)cn1` [Example 59, 2-(3-{2-amino-6-[6-(dimethylamino)pyridin-3-yl]-7H-pyrrolo[2,3-d]pyrimidin-4-yl}-2-(hydroxymethyl)phenyl)-6-cyclopropyl-8-fluoroisoquinolin-1(2H)-one], with 63 nM; and `Nc1nc(-c2cccc(-n3ccc4cc(C5CC5)cc(F)c4c3=O)c2CO)c2cc(C3=CCN(CC4CC4)CC3)[nH]c2n1` [Example 92, 2-(3-{2-amino-6-[1-(cyclopropylmethyl)-1,2,3,6-tetrahydropyridin-4-yl]-7H-pyrrolo[2,3-d]pyrimidin-4-yl}-2-(hydroxymethyl)phenyl)-6-cyclopropyl-8-fluoroisoquinolin-1(2H)-one], with 61 nM; and `CC(C)(C)n1cc(-c2cc3c(-c4cccc(-n5ccc6cc(C7CC7)cc(F)c6c5=O)c4CO)nc(N)nc3[nH]2)cn1` [Example 72, 2-(3-{2-amino-6-[1-(tert-butyl)-1H-pyrazol-4-yl]-7H-pyrrolo[2,3-d]pyrimidin-4-yl}-2-(hydroxymethyl)phenyl)-6-cyclopropyl-8-fluoroisoquinolin-1(2H)-one], with 127 nM.
In the case of `CC1CN(Cc2ccc(-c3cc4c(-c5cccc(-n6ccc7cc(C8CC8)cc(F)c7c6=O)c5CO)nc(N)nc4[nH]3)cc2)CC(C)O1` (stereo not drawn) [Example 76, 2-[3-(2-amino-6-{4-[(2,6-dimethylmorpholino)methyl]phenyl}-7H-pyrrolo[2,3-d]pyrimidin-4-yl)-2-(hydroxymethyl)phenyl]-6-cyclopropyl-8-fluoroisoquinolin-1(2H)-one], the midpoint of inhibition, the IC50, lay at 47 nM.
Turning to `CC(C)n1cc(-c2cc3c(-c4cccc(-n5ccc6cc(C7CC7)cc(F)c6c5=O)c4CO)nc(N)nc3[nH]2)cn1` [Example 63, 2-{3-[2-amino-6-(1-isopropyl-1H-pyrazol-4-yl)-7H-pyrrolo[2,3-d]pyrimidin-4-yl]-2-(hydroxymethyl)phenyl}-6-cyclopropyl-8-fluoroisoquinolin-1(2H)-one], half-maximal inhibition (IC50) required 16 nM.
Then `Nc1nc(-c2cccc(-n3ccc4cc(C5CC5)cc(F)c4c3=O)c2CO)c2cc(-c3ccc(F)cn3)[nH]c2n1` [Example 45, 2-{3-[2-amino-6-(5-fluoropyridin-2-yl)-7H-pyrrolo[2,3-d]pyrimidin-4-yl]-2-(hydroxymethyl)phenyl}-6-cyclopropyl-8-fluoroisoquinolin-1(2H)-one], with 134 nM; and `CN(C)CC(=O)N1CC=C(c2cc3c(-c4cccc(-n5ccc6cc(C7CC7)cc(F)c6c5=O)c4CO)nc(N)nc3[nH]2)CC1` [Example 85, 2-[3-(2-amino-6-{1-[2-(dimethylamino)acetyl]-1,2,3,6-tetrahydropyridin-4-yl}-7H-pyrrolo[2,3-d]pyrimidin-4-yl)-2-(hydroxymethyl)phenyl]-6-cyclopropyl-8-fluoroisoquinolin-1(2H)-one], with 24 nM.
Consider `CN1CCN(Cc2ccc(-c3cc4c(-c5cccc(-n6ccc7cc(C8CC8)cc(F)c7c6=O)c5CO)nc(N)nc4[nH]3)cc2)CC1=O` [Example 55, 2-[3-(2-amino-6-{4-[(4-methyl-3-oxopiperazin-1-yl)methyl]phenyl}-7H-pyrrolo[2,3-d]pyrimidin-4-yl)-2-(hydroxymethyl)phenyl]-6-cyclopropyl-8-fluoroisoquinolin-1(2H)-one], for which the IC50 is 13 nM.
Then `Nc1nc(-c2cccc(-n3ccc4cc(C5CC5)cc(F)c4c3=O)c2CO)c2cc(C3=CCN(C(=O)CN4CCOCC4)CC3)[nH]c2n1` [Example 86, 2-(3-{2-amino-6-[1-(2-morpholinoacetyl)-1,2,3,6-tetrahydropyridin-4-yl]-7H-pyrrolo[2,3-d]pyrimidin-4-yl}-2-(hydroxymethyl)phenyl)-6-cyclopropyl-8-fluoroisoquinolin-1(2H)-one], with 13 nM.
Under `Nc1nc(-c2cccc(-n3ccc4cc(C5CC5)cc(F)c4c3=O)c2CO)c2cc(-c3cc(F)cc(F)c3)[nH]c2n1` [Example 44, 2-{3-[2-amino-6-(3,5-difluorophenyl)-7H-pyrrolo[2,3-d]pyrimidin-4-yl]-2-(hydroxymethyl)phenyl}-6-cyclopropyl-8-fluoroisoquinolin-1(2H)-one] stands 885 nM.
Under `COc1ccc(-c2cc3c(-c4cccc(-n5ccc6cc(C7CC7)cc(F)c6c5=O)c4CO)nc(N)nc3[nH]2)cn1` [Example 65, 2-{3-[2-amino-6-(6-methoxypyridin-3-yl)-7H-pyrrolo[2,3-d]pyrimidin-4-yl]-2-(hydroxymethyl)phenyl}-6-cyclopropyl-8-fluoroisoquinolin-1(2H)-one] stands 276 nM; under `Nc1nc(-c2cccc(-n3ccc4cc(C5CC5)cc(F)c4c3=O)c2CO)c2cc(-c3ccc(CN4CCN(CC(F)(F)F)CC4)cc3)[nH]c2n1` [Example 79, 2-{3-[2-amino-6-(4-{[4-(2,2,2-trifluoroethyl)piperazin-1-yl]methyl}phenyl)-7H-pyrrolo[2,3-d]pyrimidin-4-yl]-2-(hydroxymethyl)phenyl}-6-cyclopropyl-8-fluoroisoquinolin-1(2H)-one], 30 nM.
On to `Nc1nc(-c2cccc(-n3ccc4cc(C5CC5)cc(F)c4c3=O)c2CO)c2cc(-c3cnn(Cc4ccccc4)c3)[nH]c2n1` [Example 58, 2-{3-[2-amino-6-(1-benzyl-1H-pyrazol-4-yl)-7H-pyrrolo[2,3-d]pyrimidin-4-yl]-2-(hydroxymethyl)phenyl}-6-cyclopropyl-8-fluoroisoquinolin-1(2H)-one], for which the concentration for half-maximal inhibition (IC50) worked out at 27 nM.
Under `Cn1ccc(-c2cc3c(-c4cccc(-n5ccc6cc(C7CC7)cc(F)c6c5=O)c4CO)nc(N)nc3[nH]2)n1` [Example 78, 2-{3-[2-amino-6-(1-methyl-1H-pyrazol-3-yl)-7H-pyrrolo[2,3-d]pyrimidin-4-yl]-2-(hydroxymethyl)phenyl}-6-cyclopropyl-8-fluoroisoquinolin-1(2H)-one] stands 50 nM; under `CC(C)(C)OC(=O)N1CC=C(c2cc3c(-c4cccc(-n5ccc6cc(C7CC7)cc(F)c6c5=O)c4CO)nc(N)nc3[nH]2)CC1` [Example 68, tert-butyl 4-{2-amino-4-[3-(6-cyclopropyl-8-fluoro-1-oxoisoquinolin-2(1H)-yl)-2-(hydroxymethyl)phenyl]-7H-pyrrolo[2,3-d]pyrimidin-6-yl}-5,6-dihydropyridine-1(2H)-carboxylate], 115 nM; under `CCn1cc(-c2cc3c(-c4cccc(-n5ccc6cc(C7CC7)cc(F)c6c5=O)c4CO)nc(N)nc3[nH]2)cn1` [Example 62, 2-{3-[2-amino-6-(1-ethyl-1H-pyrazol-4-yl)-7H-pyrrolo[2,3-d]pyrimidin-4-yl]-2-(hydroxymethyl)phenyl}-6-cyclopropyl-8-fluoroisoquinolin-1(2H)-one], 15 nM.

For orientation: IC50 means the concentration at which inhibition is half-maximal.
